Measured values reported in PMC9025605, “Polymerized β-Cyclodextrin-Based Injectable Hydrogel for Sustained Release of 5-Fluorouracil/Methotrexate Mixture in Breast Cancer Management: In Vitro and In Vivo Analytical Validations” (Pharmaceutics, 2022).
Read-outs that look alike come from different tables or passages of the source.

Experiments:
[1] = In vitro release of 5-FU and MTX from the medicated hydrogel in PBS at 37 °C; assay type: physicochemical; settings: for duration of quantitative release from hydrogel: 0.1% w/v; for drug released from hydrogel within the first day / drug released from hydrogel within the second day: 0.1% w/v drug in hydrogel
Experimental: Several samples (n = 6) of the medicated hydrogel (0.5 g, containing 0.5 mg of each 5-FU and MTX), were placed in 2-mL glass vials and allowed to be incubated at 4 °C for 2 h. Next, one mL of PBS was added above the formulated hydrogel mass and allowed to be incubated in a thermostatic water bath under a shaking rate of 50 rpm at 37 °C. After specific time intervals (each 24 h), 700 µL of the supernatant was withdrawn and replaced immediately with a fresh-prepared PBS, previously incubated at the same temperature to ensure the sink conditions. This process of sample withdrawal and replacing was allowed to continue until the complete clearance or full release of both two incorporated drugs from the hydrogel samples. Thus, the concentration of 5-FU and MTX in the mixture, in each collected sample, was measured simultaneously at 266 nm and 302 nm, respectively, with the aid of the spectrophotometric method, as mentioned before.

[2] = Pharmacokinetic study after intratumoral injection (plasma, HPLC); assay type: in vivo, albino female rats; settings: for Cmax: rat plasma
Experimental: The present in vivo works was performed on albino female rats (weighing 185 ± 15.1 g). The ethical approval of all the experiments was issued by the Faculty of Pharmacy, Al-Azhar University, under no AZ-AS/PH/2/C/2021. The rats were acclimatized at room temperature with a 12-h light/12-h dark cycle. Tumor-induction of 48 female rats were randomly divided into the four independent groups (with n = 12 per each group × triple trials); G1 was the controlled group, which is positive control and were received no any type of medications; G2 received a sole dose of 5-FU saline solution (100 mg/kg); G3 received a combined mixture of 5-FU/MTX saline solution (respectively, 100 and 40 mg/kg); and, finally, G4 received 5-FU/MTX hydrogel. The sole 5-FU and/or combined with MTX doses in normal saline were injected into rats using normal syringes, while the injectable medicated hydrogel doses were injected using a mixing syringe device (Doowon Meditec Corp., Youngin City, Republic of Korea). After finishing the administration processes, blood samples were collected at certain time intervals (0.5, 1, 2, 4, 6, 8, 10, 12, and 14 h). HPLC chromatographic analysis was utilized for the detection of drug concentrations.
One mL of a plasma sample in an Eppendorf tube was initially mixed with phosphate buffer (0.2 mL of 0.5 M at pH 8), after being mixed in a vortex, and an ethyl acetate solution (4.0 mL) was added and mixed in a vortex for 1 min. Then, the contents of the tube were centrifuged at 5000 rpm and temperature 10 °C for 5 min. The organic phase was taken and evaporated until dry, by using a stream of nitrogen gas at 55 °C. The drug mixture in the residue was reconstituted by a solution of potassium dihydrogen phosphate (100 µL of 0.01 M, at pH 4.0), and, then, the resulted solution was filtrated through a 0.2 μm filter syringe, before transferring into autosampler vials of the chromatographic analysis.
A high-performance liquid chromatography, HPLC (Parkin Elmer, JASCO Corporation, Tokyo, Japan), equipped with an autosampler, was used through this study. The detection method was performed using a variable wavelength UV detector, which adjusted at 266 nm for both drugs. The analytical Phenomenex, C18 symmetry RPh-column (4.6 × 250 mm; 5 µm PS) (Cap cell Pak UG120, Shiseido, Tokyo, Japan), was used at 40 °C. The mobile phase was an isocratic mixture (89:11, v/v) of, respectively, methanol and potassium dihydrogen phosphate (10 mM and adjusted to pH 4 with the aid orthophosphoric acid), which was pumped at a flow rate of 1.0 mL/min. The injected volume was 20 µL.
The concentrations of 5-FU and MTX in different rats’ plasma samples (n = 6) were calculated from the corresponding calibration curves equation, developed in the above HPLC method. The plasma concentration-time (Cp/) curve of 5FU/MTX (plasma concentrations; µg/mL in case of using a vehicle of saline, and ng/mL in case of using a vehicle hydrogel) was constructed for both drugs. Next, from the constructed (Cp/t) curves, all the common pharmacokinetic parameters of both drugs were determined using the following Equation (1). […] Moreover, the area under the Cp/t curve (AUC0-24 and AUC0-∞) (ng. h/mL) was measured using the trapezoidal rule to indicate the extent of drug absorption. The peak Cp (Cmax), the time corresponding to the maximum Cp (Tmax), and the half-life, t1/2 (h), were calculated.

[3] = system: breast tumor (chemically induced breast cancer); test: Effect on tumor growth (tumor volume, % inhibition); assay type: in vivo, female rats; settings: negative = tumor growth, read from Figure 6
Experimental: For transplantation experiments, recipient syngeneic female rats (6–7 weeks old) were anesthetized with an intramuscular injection of ketamine (8.0 mg/kg dose) and xylazine (10 mg/kg dose). Breast cancer was induced to the investigated rats by chemical induction using […], previously reported techniques. […] The tumor size for all animals was examined using a Vernier caliper (micrometer-Ozaki Ltd., Tokyo, Japan) and calculated using the following Equation (2). TV (mm^3) = 1/2 × Length × Width^2(2)
Thus, the changes in a tumor volume in rats were determined every 5 days for 15 days after administration of the injectable medicated hydrogel (contains a concentration of 100 and 40 mg/kg, respectively, for 5-FU and MTX). The antitumor effect was monitored via measuring both the relative tumor volume (RTV), representing the tumor volume after treatment, using Equation (3). (3) % RTV=(Vt)/(V0)×100 where, Vt represents the tumor volume at each time interval, and V0 is a tumor volume directly after drug injection. The % of tumor volume inhibition was calculated using the following Equation (4). (4) % Inhibition =1−(Vt)/(V0)×100

[4] = system: mammary gland tissues; test: Histopathological examination of tumor masses (H and E); assay type: in vivo, female rats; settings: tumor-bearing rats versus untreated G1
Experimental: Several tissue samples (n = 3) were taken from the tumor masses of the induced mammary glands and were fixed in formalin for 24 h. The fixed samples were processed for the usual histological procedures for hematoxylin and eosin stains, the counter staining of ultra-thin paraffin sections (5 µm; Micro HM 360® Microtome, Marshall Scientific, Hampton Virginia, USA). The stained sections were examined under a light microscope (Olympus B × 46) and were digitally photographed using its connected Olympus DP 21 digital camera (Olympus Corporation, Tokyo, Japan).

[5] = set-up: method as in PMID 1246307, PMID 18794772, PMID 15018974; settings: cited from earlier work

| SMILES | duration of quantitative release from hydrogel [1] | drug released from hydrogel within the first day [1] | drug released from hydrogel within the second day [1] | completeness of the release profile of 5-FU ([1]; drug concentration 0.1%) | completeness of the release profile of 5-FU ([1]; drug concentration 0.3%) | completeness of the release profile of 5-FU ([1]; drug concentration 0.5%) | Tmax ([2]; female, rat, plasma, 100 mg/kg, sole administration of 5-FU in saline) | Cmax ([2]; female, 5-FU alone in saline, 100 mg/kg, intratumoral, read-out: Cmax) | time within which in vivo release ended ([2]; free 5-FU solution, 100 mg/kg in saline) | elimination half-life (t1/2) ([2]; free 5-FU solution, first order) | % Inhibition of tumor volume ([3]; 5 days after treatment) | % Inhibition of tumor volume ([3]; 10 days after treatment) | % Inhibition of tumor volume ([3]; 15 days after treatment) | histopathological finding in mammary gland tissue [4] | half-life [5] | Cmax ([2]; female, other: intratumoral injection, MTX 40 mg/kg, combined with 5-FU in saline, read-out: Cmax of MTX) |
| --- | --- | --- | --- | --- | --- | --- | --- | --- | --- | --- | --- | --- | --- | --- | --- | --- |
| O=c1[nH]cc(F)c(=O)[nH]1 [5-FU, 5-fluorouracil] | two weeks | 15% | 38% | ≤ 14 days | ≤ 18 days | ≤ 21 days | 60 min | 25200 ng/mL | ≤ 7 h | 30 min | -25% | -90% | -185% | Only mild improvement | 10 to 20 min | – |
| CN(Cc1cnc2nc(N)nc(N)c2n1)c1ccc(C(=O)N[C@@H](CCC(=O)O)C(=O)O)cc1 [MTX, methotrexate] | two weeks | 40% | 60% | – | – | – | – | – | – | – | – | – | – | – | – | 15200 ng/mL |
